Test results as given in US11230527B2, “Solid forms of 2-(5-(4-(2-morpholinoethoxy)phenyl)pyridin-2-yl)-n- benzylacetamide” (Athenex HK Innovative Limited, priority 2017, dated 2022).

Key:
Type in all cases: physicochemical
[1] = XRPD physical form stability under storage conditions; conditions: up to eight weeks
Experimental: XRPD analysis is carried out using a diffractometer running in reflection mode. The 2-theta position is calibrated against a standard before running the experiment. XRPD analysis was carried out on a Panalytical X'Pert^3 Powder XRPD on a Si zero-background holder, scanning the samples between 3 and 40° 2-theta. The 2-theta position was calibrated against Panalytical 640 Si powder standard. The test material was gently compressed on a glass disc inserted into a sample holder. The sample was then loaded into a Panalytical X'Pert^3 Powder XRPD diffractometer running in reflection mode and analyzed, using the following experimental conditions.

Solubility estimation = experiment: Solubility estimation
Experimental: Solubility of the solid forms of the present application in a variety of solvents is measured. Solvent is added to a sample until the total volume reaches 100 μL, followed by 100 μL per step until the sample is dissolved or the concentration is less than <1.0 mg/mL. The approximate solubility is then calculated.
Solubility of the solid forms of the present application in a variety of solvents was measured according to the following procedures. A sample (˜2 mg) was weighed into a 4-mL glass vial. Solvent was added into the vial stepwise at 50 μL per step until the total volume was 100 μL, followed by 100 μL per step until concentration was less than 1.0 mg/mL. The solutions were mixed thoroughly after each addition by sonication for 2 minutes and vortexing for 1 minute. The addition of solvent was complete if the sample was dissolved or the concentration was <1.0 mg/mL. The volumes of solvent (V1 and V2) were recorded, and approximate solubility was calculated.

[2] = Dynamic Vapor Sorption (DVS)
Experimental: Dynamic Vapor Sorption (DVS) was measured using a SMS (Surface Measurement Systems) DVS Intrinsic. The test was performed at 25° C. while the RH was varied from 0% to 95% at 10% increments in the range of 0% RH-90% RH and at 5% increment up to 95% RH. The change in mass after each increase or decrease in the RH was recorded as a percentage of the original mass of the starting material. Dynamic Vapor Sorption (DVS) was measured using a SMS (Surface Measurement Systems) DVS Intrinsic, using the following parameters: [table]

[3] = HPLC chemical stability after storage at various conditions; conditions: for Area Percent at 248 nm T1 week: 1 week; for Area Percent at 248 nm T2 week: 2 weeks; for Area Percent at 248 nm T4 week: 4 weeks; for Area Percent at 248 nm T8 week: 8 weeks
Experimental: High-performance Liquid Chromatography (HPLC) analysis was performed to determine the chemical stability of Forms A, B, and C of Compound A after storage at various conditions, using an Agilent 1100 system with DAD. Chemical stability was estimated by measuring and comparing the area percent of the material peak at various time points. For High-performance Liquid Chromatography (HPLC) analysis, an Agilent 1100 system with DAD was used.

O=C(Cc1ccc(-c2ccc(OCCN3CCOCC3)cc2)cn1)NCc1ccccc1 [Form B, 2-(5-(4-(2-morpholinoethoxy)phenyl)pyridin-2-yl)-N-benzylacetamide]
non-hygroscopic: hygroscopicity [2]
99.8 Area Percent: Area Percent at 248 nm T1 week ([3]; 25° C./60% RH) | Area Percent at 248 nm T4 week ([3]; 25° C./60% RH) | Area Percent at 248 nm T8 week ([3]; 25° C./60% RH) | Area Percent at 248 nm T0 ([3]; 25° C./60% RH) | Area Percent at 248 nm T1 week ([3]; 40° C./75% RH) | Area Percent at 248 nm T2 week ([3]; 40° C./75% RH) | Area Percent at 248 nm T8 week ([3]; 40° C./75% RH) | Area Percent at 248 nm T0 ([3]; 40° C./75% RH) | Area Percent at 248 nm T1 week ([3]; 55° C./75% RH) | Area Percent at 248 nm T0 ([3]; 55° C./75% RH) | Area Percent at 248 nm T1 week ([3]; Ambient) | Area Percent at 248 nm T4 week ([3]; Ambient) | Area Percent at 248 nm T8 week ([3]; Ambient) | Area Percent at 248 nm T0 ([3]; Ambient)
does not change: XRPD pattern after exposure to DVS experiment ([2]; 25° C. and RH up to 95%)
no significant decrease: change in HPLC area percent purity (LCAP) ([3]; selected storage conditions, time points over eight-week study)
99.7 Area Percent: Area Percent at 248 nm T2 week ([3]; 25° C./60% RH) | Area Percent at 248 nm T4 week ([3]; 40° C./75% RH) | Area Percent at 248 nm T2 week ([3]; 55° C./75% RH) | Area Percent at 248 nm T4 week ([3]; 55° C./75% RH) | Area Percent at 248 nm T8 week ([3]; 55° C./75% RH) | Area Percent at 248 nm T2 week ([3]; Ambient)
below 1.5 mg/ml: thermodynamic aqueous solubility (Solubility estimation; aqueous)
no change in physical form: change in physical form (XRPD) ([1]; 25° C./60% RH) | change in physical form (XRPD) ([1]; 40° C./75% RH) | change in physical form (XRPD) ([1]; 55° C./75% RH) | change in physical form (XRPD) ([1]; ambient conditions)
> 20 mg/mL: aqueous solubility (dissolved completely) (Solubility estimation; aqueous solution (e.g., water), room temperature)
less than 0.2 % w/w: water uptake ([2]; between 0 and 80% RH at between 25° C. and 45° C.)
